From patent publication US9861568B2, “Composition for improving skin conditions, containing chlorophyll a or pheophorbide a” (GWANGJU INSTITUTE OF SCIENCE AND TECHNOLOGY, priority 2014, dated 2018)

Experiments:
[1] = test system: intercellular adhesion molecule-1 (ICAM-1); assay: Immunohistochemical staining for ICAM-1 in dorsal skin of UV-irradiated mice; format: in vivo, mouse; details: 5 mg/kg daily oral, compared with the UV-only-irradiated group
Experimental: (§1) In order to irradiate animals with UV, the minimal erythema dose (MED) of the dorsal skin of mice was examined first. Minimal erythema dose means the minimum amount of erythema that can be derived with a clear border after 24 hours of irradiation. The mice were irradiated three times a week for 8 weeks with UV. During the first 3 weeks, the dose was increased by 1 MED (herein, 1 MED=30 mJ/cm2), and then 3 MED was maintained thereafter.
(§2) Premature female SKH-1 hairless mice were purchased from Charles River Laboratories (Wilmington, Mass.) and adapted for one week. The mice were housed in air-conditioned rooms in a 12-hour light/12-hour dark cycle to allow them to eat water and food freely. The room temperature was maintained at 23±3° C. and under humidity at 55±15%. All experiments were approved by the Animal Care and Use Committee at Gwangju Institute of Science and Technology.
(§3) After the adaptation period, mice were divided into 4 groups of 6 mice per each group. Each of the groups was as follows:
Chlorophyll a (Ca, Sigma-Aldrich, St Louis, Mo., USA) or pheophorbide a (Pa, Frontier Scientific, Logan, Utah, USA) was dissolved in a solution of 40% polyethylene glycol 400 (Sigma-Aldrich, St Louis, Mo., USA), respectively. As a control, vehicle was prepared with only 40% polyethylene glycol 400 solution and administered to mice in the negative control and positive control groups. […]

[2] = test system: dorsal skin of UV-irradiated SKH-1 hairless mice; assay: Wrinkle evaluation of dorsal skin of UV-irradiated hairless mice (visual grade, negative replica); format: in vivo, mouse; details: UV 8 weeks, 5 mg/kg daily oral; for visual wrinkle grade: clinical images rated by two practitioners; for wrinkle area in replicated images: compared to the control group; for thickness of wrinkles of dorsal skin: compared with the control group
Experimental: as §1, §2, §3
(c) Group of receiving 5 mg/kg daily chlorophyll a with UV irradiation
(d) Group of receiving 5 mg/kg pheophorbide a daily with UV irradiation
(§4) Chlorophyll a (Ca, Sigma-Aldrich, St Louis, Mo., USA) or pheophorbide a (Pa, Frontier Scientific, Logan, Utah, USA) was dissolved in a solution of 40% polyethylene glycol 400 (Sigma-Aldrich, St Louis, Mo., USA), respectively. As a control, vehicle was prepared with only 40% polyethylene glycol 400 solution and administered to mice in the negative control and positive control groups. The administration of test materials was made immediately after UV irradiation.
A digital camera (Sony Cybershot DSC-W570, 5× optical zoom, 16.1 megapixels, Sony Corporation, Tokyo, Japan) was used to obtain a clinical image of the dorsal skin after continuous exposure to low dose UV. The enlarged wrinkles were obtained using DermLite®IIHybridM (3Gen, LLC, San Juan Capistrano, Calif., USA) attached to the digital camera. The wrinkles of the dorsal skin of the mice were graded according to the method described by Bissett et al.. The grades were as follows:
Grade 0—no thick wrinkles;
Grade 1—a few shallow thick wrinkles;
Grade 2—some thick wrinkles;
Grade 3—multiple deep thick wrinkles.
A negatively imprinted replica was used to analyze the wrinkles of the skin, which is described by Ryu et al.. That is, a semi-fluidic silicone polymer was mixed with a catalyst (Imprint II Garant™ Light Body, 3M) and then applied to a dorsal skin sufficiently to penetrate into the wrinkles beyond a contour. This replica was analyzed under standard illumination with an incident angle where the replica was formed and set to produce a reflective shadow proportional to the height of the wrinkles. The captured images were analyzed from a shadow region in the images using image analysis software (ImageJ software, NIH Image, National Institutes of Health, Bethesda, Md., USA; online at: http://rsb.info.nih.gov/ij/).

[3] = test system: dorsal skin of UV-irradiated SKH-1 hairless mice; assay: Histological examination of dorsal skin of UV-irradiated mice (H&E, Masson-trichrome); format: in vivo, mouse; details: 5 mg/kg daily oral; for collagen breakdown in the dermis / infiltration of inflammatory cells in the epidermis and upper dermis: compared with the control group; for infiltration of inflammatory cells in the epidermis and upper dermis: H&E stain; for thickness of the epidermis: Masson-trichrome staining
Experimental: as §1, §2, §3, §4
Tissue samples taken from the dorsal skin of UV-irradiated mice were fixed in 4% paraformaldehyde and then included in paraffin. Thin sections with a thickness of 4 μm were stained with hematoxylin and eosin solution. To visualize collagen deposition, the sections were stained with Accustain trichrome stain (Sigma-Aldrich, St. Louis, Mo., USA). The epidermal thickness from a junction of the granular keratocytes to a junction of the dermis-epidermis was measured using an i-Solution DT image acquisition and analysis program (IMT 20 i-solution, Vancouver, Canada) and a Leica microscope (Leica, Wetzlar, Germany). To assess the thickness of the epidermis, any of the ten sites on the slide were measured. In […], inflammatory cells from epidermis to subcutaneous fat layer were calculated.

MMP-1 [4] = assay: Western blotting of MMP-1 protein in UV-irradiated hDF cells; format: cell-based, human; details: various concentrations
Experimental: (§5) The primary human dermal fibroblast (hDF) cell line was obtained from Chonnam National University Medical School (Gwangju, Republic of Korea). The cells were cultured at 37° C. and under 5% CO2 using Dulbecco's Modified Eagle's Medium (DMEM, Gibco Laboratories, Grand Island, N.Y., USA) supplemented with 5% fetal bovine serum (Gibco Laboratories, Grand Island, N.Y., USA) and 1% penicillin (100 units/ml)/streptomycin ([…]).
(§6) Philips TL 20W/12 RS fluorescent sun lamp with emission spectra of 280 nm and 380 nm was used as an UV source. The UV intensity at the skin surface was measured using a UV detector (GUVx-T1xGS5-LA2, Genicom Daejeon, Korea). The UV irradiation intensity was 1.0 mW/cm2 at 30 cm from the UV source. The cells were cultured up to 75-80% of culture dish, washed twice with PBS buffer, and irradiated with UV to treat test materials. Thereafter, the cells were continuously cultured in the absence of light until the next analysis. […]

MMP-3 [5] = assay: Western blotting of MMP-3 protein in UV-irradiated hDF cells; format: cell-based, human; details: various concentrations
Experimental: as §5, §6

[6] = test system: human dermal fibroblast (hDF) cells; assay: Cell viability assay (water soluble tetrazolium) in UV-irradiated hDF cells; format: cell-based; details: UV 20 mJ/cm2, 0, 10, 20, 50 μM, 72 hours in the absence of light
Experimental: as §5
(§7) Philips TL 20W/12 RS fluorescent sun lamp with emission spectra of 280 nm and 380 nm was used as an UV source. The UV intensity at the skin surface was measured using a UV detector (GUVx-T1xGS5-LA2, Genicom Daejeon, Korea). The UV irradiation intensity was 1.0 mW/cm2 at 30 cm from the UV source. The cells were cultured up to 75-80% of culture dish, washed twice with PBS buffer, and irradiated with UV to treat test materials. Thereafter, the cells were continuously cultured in the absence of light until the next analysis.
A water soluble tetrazolium test method was used for cell viability analysis. Quantification of living cells was performed using a […] Ez-cytox Cell Viability Assay Kit (Daeil Lab Co, Seoul, Korea). The formazan dye was analyzed spectrophotometrically by measuring the absorbance at 450 nm using a Chameleon multi-label plate reader (Hidex Personal Life Science, Hidex Oy, Finland). […]

MMP-3 [7] = assay: Real-time RT-PCR of MMP-3 mRNA in UV-irradiated hDF cells; format: cell-based, human; details: cultured 24 hours, relative to GAPDH
Experimental: as §5, §7
(§8) Total RNA was isolated using a Trizol reagent (Invitrogen, Carlsbad, Calif., USA) according to the manufacturer's instructions. […] For the detection of fluorescence during the PCR amplification, SYBR Premix Ex Taq (Takara Bio, Otsu, Japan) was used. […]
(§9) In addition, UV was irradiated, the test materials were treated, cultured for 24 hours, and then the mRNA level of MMPs was analyzed using a real time RT PCR method. […]

[8] = test system: c-Jun N-terminal kinase (JNK); assay: Western blotting of phosphorylated JNK and JNK in UV-irradiated hDF cells; format: cell-based, human
Experimental: as §5, §7
The total protein extracts from the samples were dissolved in lysis buffer (50 mM Tris (pH 7.4), 150 mM NaCl, 1 mM EGTA, 1% NP-40, 0.25% sodium deoxycholate, 1 mM PMSF, and phosphatase inhibitor mixture (Sigma, St. Louis, Mo., USA) and then boiled for 5 minutes. The dissolved proteins were quantitated using Bio-Rad Protein Assay Dye Reagent Concentrate (Bio-Rad Laboratories, Hercules, Calif., USA) and then separated by SDS-PAGE and transferred to a polyvinylidene difluoride (PVDF) membrane (Amersham Pharmacia Biotech, Piscataway, N.J., USA). Membranes were reacted with specific primary antibodies overnight at 4° C., and protein bands were then visualized using secondary antibodies coupled with horseradish peroxidase (HRP) and a chemiluminescence detection kit (Amersham Pharmacia Biotech). […]

[9] = test system: extracellular signal-regulated kinase (Erk); assay: Western blotting of phosphorylated Erk in UV-irradiated hDF cells; format: cell-based, human; details: 20 μM and 50 μM, 2 hours in the absence of light
Experimental: as §5, §6

MMP-1 [10] = assay: Real-time RT-PCR of MMP-1 mRNA in UV-irradiated hDF cells; format: cell-based, human; details: cultured 24 hours, relative to GAPDH
Experimental: as §5, §7, §8, §9

Compound	level of ICAM-1 expression in the epidermis and upper dermis [1]	visual wrinkle grade [2]	wrinkle area in replicated images [2]	thickness of wrinkles of dorsal skin [2]	collagen breakdown in the dermis [3]	infiltration of inflammatory cells in the epidermis and upper dermis [3]	thickness of the epidermis [3]	MMP-1 protein expression level (MMP-1 [4])	MMP-3 protein expression level (MMP-3 [5])	cell viability [6]	MMP-3 mRNA level (MMP-3 [7])	MAPK phosphorylation inhibition ([8]; 10 μM, 2 hours)	expression level of phosphorylated JNK ([8]; 20 μM and 50 μM, 2 hours in the absence of light)	basal JNK protein level ([8]; 2 hours in the absence of light)	expression level of phosphorylated Erk [9]	MMP-1 mRNA level (MMP-1 [10])
C=Cc1c(C)c2cc3nc(c4c5[n-]c(cc6nc(cc1[n-]2)C(C)=C6CC)c(C)c5C(=O)[C@@H]4C(=O)OC)[C@@H](CCC(=O)OC/C=C(\C)CCC[C@H](C)CCC[C@H](C)CCCC(C)C)[C@@H]3C.[Mg+2] [chlorophyll a]	decreased	wrinkles grades were lower	a decrease in the wrinkle area	remarkably reduced	less collagen breakdown occurred	reduced	A decrease in thickness	–	–	–	–	–	–	–	–	–
pheophorbide a	decreased	wrinkles grades were lower	a decrease in the wrinkle area	remarkably reduced	less collagen breakdown occurred	reduced	A decrease in thickness	decreased in proportion to the amount treated	decreased in proportion to the amount treated	not affected	significant decrease	not as much as 20 μM and 50 μM	decreased	decreased in proportion to the amount of pheophorbide a	decreased	significant decrease
